According to patent publication US20230172930A1, “USE OF COMPLEMENT FACTOR D INHIBITORS ALONE OR IN COMBINATION WITH ANTI-C5 ANTIBODIES FOR TREATMENT OF PAROXYSMAL NOCTURNAL HEMOGLOBINURIA” (Alexion Pharmaceuticals, Inc., priority 2020, published 2023):

Test system: PNH patients with an inadequate response to eculizumab
Experiment: Phase 2 study: RBC transfusion needs (events, units, annualized rates)
Format: in vivo, human
Description: Transfusion frequency and amount were evaluated via annualized rates and units, respectively. The average intensive rate of transfusion frequency before treatment was calculated by summing the number of transfusion events in the 52 weeks prior to Screening plus days from Screening to Day 1 of dosing from 10 patients and dividing this sum by the patients' total exposure times. The average intensive rate in the 24 weeks post-treatment was calculated with the same method. The ratio of these two intensive rates (post vs. pre) was used to quantify the treatment effect. Standard statistical analysis for comparing the two intensity rates (post- vs pre-treatment) was conducted.

[1] = pre-danicopan: 52-week history plus screening to Day 1, ten patients on eculizumab

## CC(=O)c1nn(CC(=O)N2C[C@H](F)C[C@H]2C(=O)Nc2cccc(Br)n2)c2ccc(-c3cnc(C)nc3)cc12 [Danicopan, danicopan]
post- vs. pre-danicopan
  reduction in transfusion frequency: 95.8%
post-danicopan (24 weeks)
  average annualized rate of transfusion events: 0.217
  average annualized transfusion units: 0.43
pre-danicopan
  average annualized rate of transfusion events: 5.234
  average annualized transfusion units: 9.27
[1]
  transfusions administered: 57
  units of packed red blood cells (PRBC): 101 units
Since commencing danicopan through week 24, ten patients
  units transfused: 2 units
